The values that follow come from patent EP3074389B1, “QUINOLINE DERIVATIVES AS BROMODOMAIN INHIBITORS” (Gilead Sciences, Inc., priority 2013, dated 2015).

For assay [1], the target named is BRD4 domain 1 (Homo sapiens, UniProt O60885). As to the kind of experiment: Kd determination of inhibitors binding to BRD4 domain 1 (Epic label-free platform). The following applies: direct binding to immobilized BRD4 domain 1; tripling dilution series from 20µM; about 1hr equilibrium; rounded to whole number; read-out: Epic Kd BRD41. As to the method: (§1) Kd Determination of Inhibitors Binding to BRD4 Domain 1 and Domain 2
(§2) The binding of small molecule inhibitors to either BRD4 domain 1 or domain 2 were determined using the Epic, high-throughput, label-free platform (Corning, Lowell, MA). The Epic instrument incorporates an evanescent waveguide sensor within each well of its proprietary 384-well microplates. Direct binding of inhibitors to BRD4 immobilized onto the microplate well surface can be detected by exposing the waveguide to a broadband light source. The resulting resonant wavelength shift (measured in picometers (pm)) is proportional to the mass bound to the surface. Epic biochemical plates (Corning, Lowell, MA) were activated by adding 15 µL/well of 200 mM EDC and 50 mM Sulfo-NHS (Pierce Thermo Scientific, Rockford, IL) and incubated for 60 minutes at room temperature. Plates were washed three times with MilliQ water and dried by centrifugation (1 minute at 400 rpm). BRD4 immobilization was accomplished by resuspending the protein at a concentration of 150 µg/mL in 20 mM HEPES (pH 7) and adding 10 µL/well. […] Compound/inhibitor binding was determined by calculating difference between the baseline (first read) and second read. The resulting binding response was fitted to a single site binding isotherm in order to determine an equilibrium dissociation constant (Kd).

Assay [2] deals with BRD4 domain 2 (Homo sapiens, UniProt O60885). In words: Kd determination of inhibitors binding to BRD4 domain 2 (Epic label-free platform). As to conditions: direct binding to immobilized BRD4 domain 2; tripling dilution series from 20µM; about 1hr equilibrium; rounded to whole number. As to the method:
as §1, §2

For the compound `Cc1noc(C)c1-c1cc(S(=O)(=O)NC2CCCC2)c2cc(NCC(C)(C)N)c(=O)[nH]c2c1` [Compound 99, 3-((2-amino-2-methylpropyl)amino)-N-cyclopentyl-7-(3,5-dimethylisoxazol-4-yl)-2-oxo-1,2-dihydroquinoline-5-sulfonamide], the Kd in assay [1] was determined as 0.671 µM; in assay [2], 0.632 µM.

Take `Cc1noc(C)c1-c1cc(S(=O)(=O)NC2CC2)c2ccc(=O)[nH]c2c1` [Compound 68, N-cyclopropyl-7-(3,5-dimethylisoxazol-4-yl)-2-oxo-1,2-dihydroquinoline-5-sulfonamide]: the Kd in assay [1] is 13.8 µM; in assay [2], 2.92 µM.

In the case of `Cc1noc(C)c1-c1cc(S(=O)(=O)NC2CCCC2)c2cc(Br)c(=O)[nH]c2c1` [Compound 22, 3-bromo-N-cyclopentyl-7-(3,5-dimethylisoxazol-4-yl)-2-oxo-1,2-dihydroquinoline-5-sulfonamide], the results for the Kd in assay [1] and in assay [2] were 1.02 µM and 0.501 µM, respectively.

`Cc1noc(C)c1-c1cc(S(=O)(=O)NC2CCCC2)c2ncc(=O)[nH]c2c1` [Compound 87, N-cyclopentyl-7-(3,5-dimethylisoxazol-4-yl)-2-oxo-1,2-dihydroquinoxaline-5-sulfonamide]: the Kd is 2.2 µM in assay [1] and 1.34 µM in assay [2].

In the case of `Cc1noc(C)c1-c1cc(S(=O)(=O)N[C@@H]2CCC[C@H]2NC(=O)OC(C)(C)C)c2cccnc2c1` [Compound 45, tert-butyl ((1R,2R)-2-(7-(3,5-dimethylisoxazol-4-yl)quinoline-5-sulfonamido)cyclopentyl)carbamate], the Kd was 14.6 µM in assay [1] and > 20 µM in assay [2].

For `Cc1noc(C)c1-c1cc(S(=O)(=O)NC2CCCC2)c2nccnc2c1` [Compound 86, N-cyclopentyl-7-(3,5-dimethylisoxazol-4-yl)quinoxaline-5-sulfonamide], the Kd came to 3.48 µM in assay [1] and 2.46 µM in assay [2].

For `Cc1noc(C)c1-c1cc(S(=O)(=O)NC2CCCC2)c2cc(NC3CCN(C)CC3)c(=O)[nH]c2c1` [Compound 66, N-cyclopentyl-7-(3,5-dimethylisoxazol-4-yl)-3-((1-methylpiperidin-4-yl)amino)-2-oxo-1,2-dihydroquinoline-5-sulfonamide], the values for the Kd in assay [1] and in assay [2] were 0.52 µM and 0.421 µM, respectively.

`Cc1noc(C)c1-c1cc(S(=O)(=O)N[C@H]2C[C@@H](NC(=O)OC(C)(C)C)C2)c2cccnc2c1` [Compound 25, tert-butyl ((1s,3s)-3-(7-(3,5-dimethylisoxazol-4-yl)quinoline-5-sulfonamido)cyclobutyl)carbamate]: the values for the Kd in assay [1] and in assay [2] were 16.2 µM and > 20 µM, respectively.

On to `Cc1noc(C)c1-c1cc(S(=O)(=O)N[C@@H]2CCC[C@H]2C(=O)N2CCN(C)CC2)c2cccnc2c1` [Compound 71, 7-(3,5-dimethylisoxazol-4-yl)-N-((1R,2R)-2-(4-methylpiperazine-1-carbonyl)cyclopentyl) quinoline-5-sulfonamide], for which the figures for the Kd in assay [1] and in assay [2] were 4.89 µM and 4.15 µM, respectively.

For `Cc1noc(C)c1-c1cc(S(=O)(=O)NC2(C#N)CC2)c2cccnc2c1` [Compound 49, N-(1-cyanocyclopropyl)-7-(3,5-dimethylisoxazol-4-yl)quinoline-5-sulfonamide], the dissociation constant (Kd) was > 20 µM in assay [1] and 18.8 µM in assay [2].

As to `COC[C@H]1CCC[C@H]1NS(=O)(=O)c1cc(-c2c(C)noc2C)cc2ncccc12` [Compound 63, 7-(3,5-dimethylisoxazol-4-yl)-N-((1R,2S)-2-(methoxymethyl)cyclopentyl)quinoline-5-sulfonamide], the Kd in assay [1] was 14.6 µM; in assay [2], 9.56 µM.

For `Cc1noc(C)c1-c1cc(S(=O)(=O)NC2CCCC2)c2ccc(C3CC3)nc2c1` [Compound 4, N-cyclopentyl-2-cyclopropyl-7-(3,5-dimethylisoxazol-4-yl)quinoline-5-sulfonamide], the dissociation constant Kd in assay [1] is 1.44 µM; in assay [2], 3.5 µM.

On to `CCOC(=O)N[C@H]1CCC[C@H]1NS(=O)(=O)c1cc(-c2c(C)noc2C)cc2ncccc12` [Compound 54, ethyl ((1S,2R)-2-(7-(3,5-ditnethylisoxazol-4-yl)quinoline-5-sulfonamido)cyclopentyl)carbamate], for which the Kd in assay [1] was found to be 5.87 µM; in assay [2], 7.99 µM.

As for `Cc1noc(C)c1-c1cc(S(=O)(=O)N[C@@H](CC(C)(C)C)C(=O)N2CCNCC2)c2cccnc2c1` [Compound 81, (S)-N-(4,4-dimethyl-1-oxo-1-(piperazin-1-yl)pentan-2-yl)-7-(3,5-dimethylisoxazol-4-yl)quinoline-5-sulfonamide], the Kd is 13.7 µM in assay [1] and > 20 µM in assay [2].

On to `COCCNc1cc2c(S(=O)(=O)N[C@@H]3CCC[C@H]3O)cc(-c3c(C)noc3C)cc2[nH]c1=O` [Compound 85, 7-(3,5-dimethylisoxazol-4-yl)-N-((1R,2R)-2-hydroxycyclopentyl)-3-((2-methoxyethyl)amino)-2-oxo-1,2-dihydroquinoline-5-sulfonamide], for which the figures for the Kd in assay [1] and in assay [2] were 0.483 µM and 0.429 µM, respectively.

As for `Cc1noc(C)c1-c1cc(S(=O)(=O)N[C@H](C)C(F)(F)F)c2cccnc2c1` [Compound 100, (R)-7-(3,5-dimethylisoxazol-4-trifluoropropan-2-yl)quinoline-5-sulfonamide], the dissociation constant Kd in assay [1] is 8.95 µM; in assay [2] it was 11.4 µM.

In the case of `Cc1noc(C)c1-c1cc(S(=O)(=O)NC2CCCC2)c2cc(-c3cccnc3)c(=O)[nH]c2c1` [Compound 29, N-cyclopentyl-7-(3,5-dimethylisoxazol-4-yl)-2-oxo-3-(pyridin-3-yl)-1,2-dihydroquinoline-5-sulfonamide], the figures for the Kd in assay [1] and in assay [2] were 0.253 µM and 0.241 µM, respectively.

Take `Cc1noc(C)c1-c1cc(S(=O)(=O)NCCN)c2cccnc2c1` [Compound 74, N-(2-aminoethyl)-7-(3,5-dimethylisoxazol-4-yl)quinoline-5-sulfonamide]: the equilibrium dissociation constant (Kd) in assay [1] was 14.1 µM; in assay [2], 17.5 µM.

With `Cc1noc(C)c1-c1cc(S(=O)(=O)NC2CCCC2)c2cc(N3CCOCC3)c(=O)[nH]c2c1` [Compound 55, N-cyclopentyl-7-(3,5-dimethylisoxazol-4-yl)-3-morpholino-2-oxo-1,2-dihydroquinoline-5-sulfonamide], the Kd in assay [1] came to 1.34 µM; in assay [2] it was 0.726 µM.

For `Cc1noc(C)c1-c1cc(S(=O)(=O)NCCc2ccccc2)c2ccc(=O)[nH]c2c1` [Compound 48, 7-(3,5-dimethylisoxazol-4-yl)-2-oxo-N-phenethyl-1,2-dihydroquinoline-5-sulfonamide], the Kd in assay [1] was > 20 µM; in assay [2], 20 µM.

On to `COc1ccc2c(S(=O)(=O)NC3CCCC3)cc(-c3c(C)noc3C)cc2n1` [Compound 16, N-cyclopentyl-7-(3,5-dimethylisoxazol-4-yl)-2-methoxyquinoline-5 - sulfonamide], for which the equilibrium dissociation constant (Kd) in assay [1] was 3.37 µM; in assay [2], 6.3 µM.

In the case of `Cc1noc(C)c1-c1cc(S(=O)(=O)NC2CCCC2)c2cc(C(N)=O)c(=O)[nH]c2c1` [Compound 69, 5-(N-cyclopentylsulfamoyl) -7-(3,5-dimethylisoxazol-4-yl)-2-oxo-1,2-dihydroquinoline-3-carboxamide], the Kd in assay [1] is 7.27 µM; in assay [2], 1.19 µM.

As to `Cc1noc(C)c1-c1cc(S(=O)(=O)NC2CCCC2)c2ccc(Cl)nc2c1` [Compound 3, 2-chloro-N-cyclopentyl-7-(3,5-dimethylisoxazol-4-yl)quinoline-5-sulfonamide], the values for the Kd in assay [1] and in assay [2] were 1.25 µM and 2.97 µM, respectively.

With `Cc1noc(C)c1-c1cc(S(=O)(=O)NC2CCCC2)c2cc(-c3ncccn3)c(=O)[nH]c2c1` [Compound 37, N-cyclopentyl-7-(3,5-dimethylisoxazol-4-yl)-2-oxo-3-(pyrimidin-2-yl)-1,2-dihydroquinoline-5-sulfonamide], the equilibrium dissociation constant (Kd) in assay [1] was 2.09 µM; in assay [2] it was 0.757 µM.

Regarding `Cc1noc(C)c1-c1cc(S(=O)(=O)NC2CCCC2)c2cc(NC(CO)CO)c(=O)[nH]c2c1` [Compound 92, N-cyclopentyl-3-((1,3-dihydroxypropan-2-yl)amino)-7-(3,5-dimethylisoxazol-4-yl)-2-oxo-1,2-dihydroquinoline-5-sulfonamide], the Kd in assay [1] worked out at 0.897 µM; in assay [2], 0.493 µM.

Turning to `Cc1noc(C)c1-c1cc(S(=O)(=O)NC2CCCC2)c2cc(NC(C)(C)CO)c(=O)[nH]c2c1` [Compound 97, N-cyclopentyl-7-(3,5-dimethylisoxazol-4-yl)-3-((1-hydroxy-2-methylpropan-2-yl)amino)-2-oxo-1,2-dihydroquinoline-5-sulfonamide], the Kd was found to be 0.936 µM in assay [1] and 0.658 µM in assay [2].

Turning to `Cc1noc(C)c1-c1cc(S(=O)(=O)N[C@@H]2CCC[C@@H]2C(=O)NCc2nccn2C)c2cccnc2c1` [Compound 43, (1S,2R)-2-(7-(3,5-dimethylisoxazol-4-yl)quinoline-5-sulfonamido)-N-((1-methyl-1H-imidazol-2-yl)methyl)cyclopentan ecarboxamide], the Kd in assay [1] was > 20 µM; in assay [2], 10.7 µM.
